Results as given in ChEMBL document CHEMBL3871307, “Discovery of Chromane Propionic Acid Analogues as Selective Agonists of GPR120 with in Vivo Activity in Rodents” (ACS Med Chem Lett, 2017).

Columns and labels:
[1] = Plasma concentration in wild type C57BL/6 transverse aortic constriction mouse harboring GPR120 at 150 mg/kg, po measured at 3 hrs; assay type: ADME, organism-based; conditions: C57BL/6, mouse
[2] = Volume of distribution at steady state in rhesus monkey plasma at 0.5 mg/kg, iv or 1 mg/kg, po by LC/MS/MS analysis; assay type: ADME, organism-based, Macaca mulatta; conditions: read-out: Vdss
[3] = molecular target: T1, Free fatty acid receptor 4 (Homo sapiens) (UniProt Q5NUL3); assay: Agonist activity at human GPR120 short isoform expressed in CHOK1 cells assessed as increase in IP1 accumulation at 10 uM after 60 mins by HTRF assay; assay type: functional, cell-based; conditions: CHO-K1
T1 sequence (whole entry): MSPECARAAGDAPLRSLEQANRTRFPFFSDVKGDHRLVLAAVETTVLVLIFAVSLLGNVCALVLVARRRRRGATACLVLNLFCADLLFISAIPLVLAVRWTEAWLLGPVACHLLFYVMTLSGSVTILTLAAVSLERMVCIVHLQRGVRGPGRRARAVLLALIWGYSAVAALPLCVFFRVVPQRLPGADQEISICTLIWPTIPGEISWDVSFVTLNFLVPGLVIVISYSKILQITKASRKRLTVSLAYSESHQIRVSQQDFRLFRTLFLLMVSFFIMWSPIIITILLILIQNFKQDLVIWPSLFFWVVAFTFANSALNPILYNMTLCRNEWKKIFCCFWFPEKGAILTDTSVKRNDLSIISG

[4] = Oral bioavailability in mouse plasma at 30 mg/kg by LC/MS/MS analysis; assay type: ADME, organism-based
[5] = molecular target: T2, Free fatty acid receptor 4 (Homo sapiens, UniProt Q5NUL3); assay: Agonist activity at human GPR120 short isoform expressed in CHOK1 cells assessed as increase in IP1 accumulation after 60 mins by HTRF assay; assay type: functional, cell-based, CHO-K1
T2 sequence (Q5NUL3 whole entry): T1 sequence (whole entry)

[6] = molecular target: Cytochrome P450 2D6 (Homo sapiens, UniProt P10635); assay: Inhibition of human CYP2D6; assay type: ADME
Cytochrome P450 2D6, sequence (P10635 whole entry): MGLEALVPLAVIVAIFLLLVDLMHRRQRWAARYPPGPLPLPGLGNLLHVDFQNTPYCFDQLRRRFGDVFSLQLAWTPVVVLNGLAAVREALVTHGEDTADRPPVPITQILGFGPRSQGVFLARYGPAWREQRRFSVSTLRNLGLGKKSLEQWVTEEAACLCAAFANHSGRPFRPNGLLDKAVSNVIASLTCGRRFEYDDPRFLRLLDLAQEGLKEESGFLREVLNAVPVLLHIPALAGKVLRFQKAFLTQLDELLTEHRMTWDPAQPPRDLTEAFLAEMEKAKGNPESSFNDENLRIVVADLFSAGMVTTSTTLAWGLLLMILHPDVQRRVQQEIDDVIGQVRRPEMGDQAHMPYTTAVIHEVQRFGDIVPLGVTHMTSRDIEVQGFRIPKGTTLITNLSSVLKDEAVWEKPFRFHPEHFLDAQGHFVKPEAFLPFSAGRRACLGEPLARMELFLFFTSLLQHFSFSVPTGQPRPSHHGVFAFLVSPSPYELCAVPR

[7] = system: Mus musculus; assay: Glucose lowering effect in C57BL/6 transverse aortic constriction mouse assessed as reduction in blood glucose pretreated for 60 mins via oral gavage followed by dextrose challenge measured up to 120 mins post glucose challenge by OGTT; assay type: functional
[8] = Plasma concentration in C57BL/6 mouse oral glucose tolerance test at 3 mg/kg, po via gavage measured at 3 hrs
[9] = molecular target: Voltage-dependent L-type calcium channel subunit alpha-1C (Homo sapiens, UniProt Q13936); assay: Inhibition of Cav1.2 (unknown origin)
Voltage-dependent L-type calcium channel subunit alpha-1C, sequence (Q13936 whole entry): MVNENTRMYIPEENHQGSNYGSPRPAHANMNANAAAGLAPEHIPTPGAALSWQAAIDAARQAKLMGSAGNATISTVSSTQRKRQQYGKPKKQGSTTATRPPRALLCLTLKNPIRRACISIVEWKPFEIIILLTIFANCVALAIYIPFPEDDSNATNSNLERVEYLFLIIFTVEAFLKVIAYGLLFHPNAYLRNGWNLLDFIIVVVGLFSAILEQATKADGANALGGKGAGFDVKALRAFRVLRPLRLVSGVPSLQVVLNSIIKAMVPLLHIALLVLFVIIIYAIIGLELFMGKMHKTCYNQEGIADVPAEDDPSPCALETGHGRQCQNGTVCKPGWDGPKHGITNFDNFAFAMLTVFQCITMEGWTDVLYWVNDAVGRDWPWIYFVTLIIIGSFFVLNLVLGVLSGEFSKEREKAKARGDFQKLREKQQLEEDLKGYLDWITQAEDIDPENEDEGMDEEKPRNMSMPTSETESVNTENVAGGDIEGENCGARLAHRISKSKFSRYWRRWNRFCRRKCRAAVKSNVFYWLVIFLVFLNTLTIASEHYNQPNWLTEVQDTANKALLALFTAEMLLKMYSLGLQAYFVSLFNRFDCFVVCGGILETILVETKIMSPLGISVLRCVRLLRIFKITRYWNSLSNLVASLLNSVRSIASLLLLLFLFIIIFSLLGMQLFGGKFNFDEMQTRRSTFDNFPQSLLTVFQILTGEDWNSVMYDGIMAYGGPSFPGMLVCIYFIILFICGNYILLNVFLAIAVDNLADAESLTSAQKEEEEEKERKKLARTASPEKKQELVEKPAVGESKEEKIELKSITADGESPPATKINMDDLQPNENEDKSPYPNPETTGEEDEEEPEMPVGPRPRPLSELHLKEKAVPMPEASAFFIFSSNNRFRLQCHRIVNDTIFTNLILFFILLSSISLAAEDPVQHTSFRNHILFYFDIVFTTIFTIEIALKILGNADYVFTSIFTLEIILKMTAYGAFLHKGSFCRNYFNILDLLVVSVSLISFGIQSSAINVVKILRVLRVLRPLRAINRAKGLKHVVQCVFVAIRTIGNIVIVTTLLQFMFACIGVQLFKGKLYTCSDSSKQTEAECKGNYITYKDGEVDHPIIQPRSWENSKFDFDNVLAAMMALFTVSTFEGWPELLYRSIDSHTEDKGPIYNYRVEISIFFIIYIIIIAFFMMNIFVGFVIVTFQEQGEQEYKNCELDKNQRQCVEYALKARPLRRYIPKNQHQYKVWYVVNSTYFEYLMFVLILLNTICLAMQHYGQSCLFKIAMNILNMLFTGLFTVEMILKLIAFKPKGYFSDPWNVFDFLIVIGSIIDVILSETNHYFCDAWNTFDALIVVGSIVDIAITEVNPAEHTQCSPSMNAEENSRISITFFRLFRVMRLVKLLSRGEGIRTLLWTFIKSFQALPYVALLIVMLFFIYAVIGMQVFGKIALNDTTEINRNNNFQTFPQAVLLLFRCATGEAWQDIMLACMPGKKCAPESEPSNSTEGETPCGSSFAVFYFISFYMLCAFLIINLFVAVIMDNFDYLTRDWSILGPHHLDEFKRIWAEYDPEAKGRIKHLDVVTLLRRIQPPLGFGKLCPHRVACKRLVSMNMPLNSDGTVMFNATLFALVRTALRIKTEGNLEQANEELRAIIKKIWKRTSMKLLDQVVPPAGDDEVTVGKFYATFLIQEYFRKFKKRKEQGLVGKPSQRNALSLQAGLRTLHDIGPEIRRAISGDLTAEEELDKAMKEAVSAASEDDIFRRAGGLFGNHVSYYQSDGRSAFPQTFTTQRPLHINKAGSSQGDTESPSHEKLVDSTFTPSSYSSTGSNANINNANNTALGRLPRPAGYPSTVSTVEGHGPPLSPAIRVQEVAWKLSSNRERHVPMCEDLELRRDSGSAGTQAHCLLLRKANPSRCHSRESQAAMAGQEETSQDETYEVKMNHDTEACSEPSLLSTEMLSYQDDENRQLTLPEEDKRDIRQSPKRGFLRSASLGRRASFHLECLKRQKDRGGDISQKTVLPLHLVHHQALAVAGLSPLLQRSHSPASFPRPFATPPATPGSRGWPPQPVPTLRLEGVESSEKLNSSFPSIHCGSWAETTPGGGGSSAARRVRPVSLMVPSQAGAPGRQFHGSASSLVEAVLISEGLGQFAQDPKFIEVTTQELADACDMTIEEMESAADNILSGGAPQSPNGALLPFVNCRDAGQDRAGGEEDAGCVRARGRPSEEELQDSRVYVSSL

[10] = Inhibition of IKr (unknown origin) expressed in HEK293 cells; assay type: cell-based, Homo sapiens
[11] = Clearance in rat plasma at 0.1 mg/kg administered as iv casette dose by LC/MS/MS analysis; assay type: ADME, organism-based
[12] = molecular target: T3, Peroxisome proliferator-activated receptor gamma (Homo sapiens) (UniProt P37231); assay: Activity at PPARgamma (unknown origin)
T3 sequence (whole entry): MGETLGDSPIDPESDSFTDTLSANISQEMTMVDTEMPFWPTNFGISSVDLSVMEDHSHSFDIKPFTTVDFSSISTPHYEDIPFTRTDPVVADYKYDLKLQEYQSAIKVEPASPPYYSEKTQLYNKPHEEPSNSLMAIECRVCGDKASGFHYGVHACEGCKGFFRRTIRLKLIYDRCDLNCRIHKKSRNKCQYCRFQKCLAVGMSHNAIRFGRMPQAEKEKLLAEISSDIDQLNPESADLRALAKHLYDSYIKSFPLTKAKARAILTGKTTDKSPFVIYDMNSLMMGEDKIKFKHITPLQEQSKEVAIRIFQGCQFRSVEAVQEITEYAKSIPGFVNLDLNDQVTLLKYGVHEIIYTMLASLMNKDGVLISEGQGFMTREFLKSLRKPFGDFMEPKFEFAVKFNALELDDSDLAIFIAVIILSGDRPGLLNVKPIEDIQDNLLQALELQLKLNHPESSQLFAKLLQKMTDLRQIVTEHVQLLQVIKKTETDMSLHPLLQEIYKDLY

[13] = molecular target: Sodium channel protein type 5 subunit alpha (Homo sapiens, UniProt Q14524); assay: Inhibition of Nav1.5 (unknown origin)
Sodium channel protein type 5 subunit alpha, sequence (Q14524 whole entry): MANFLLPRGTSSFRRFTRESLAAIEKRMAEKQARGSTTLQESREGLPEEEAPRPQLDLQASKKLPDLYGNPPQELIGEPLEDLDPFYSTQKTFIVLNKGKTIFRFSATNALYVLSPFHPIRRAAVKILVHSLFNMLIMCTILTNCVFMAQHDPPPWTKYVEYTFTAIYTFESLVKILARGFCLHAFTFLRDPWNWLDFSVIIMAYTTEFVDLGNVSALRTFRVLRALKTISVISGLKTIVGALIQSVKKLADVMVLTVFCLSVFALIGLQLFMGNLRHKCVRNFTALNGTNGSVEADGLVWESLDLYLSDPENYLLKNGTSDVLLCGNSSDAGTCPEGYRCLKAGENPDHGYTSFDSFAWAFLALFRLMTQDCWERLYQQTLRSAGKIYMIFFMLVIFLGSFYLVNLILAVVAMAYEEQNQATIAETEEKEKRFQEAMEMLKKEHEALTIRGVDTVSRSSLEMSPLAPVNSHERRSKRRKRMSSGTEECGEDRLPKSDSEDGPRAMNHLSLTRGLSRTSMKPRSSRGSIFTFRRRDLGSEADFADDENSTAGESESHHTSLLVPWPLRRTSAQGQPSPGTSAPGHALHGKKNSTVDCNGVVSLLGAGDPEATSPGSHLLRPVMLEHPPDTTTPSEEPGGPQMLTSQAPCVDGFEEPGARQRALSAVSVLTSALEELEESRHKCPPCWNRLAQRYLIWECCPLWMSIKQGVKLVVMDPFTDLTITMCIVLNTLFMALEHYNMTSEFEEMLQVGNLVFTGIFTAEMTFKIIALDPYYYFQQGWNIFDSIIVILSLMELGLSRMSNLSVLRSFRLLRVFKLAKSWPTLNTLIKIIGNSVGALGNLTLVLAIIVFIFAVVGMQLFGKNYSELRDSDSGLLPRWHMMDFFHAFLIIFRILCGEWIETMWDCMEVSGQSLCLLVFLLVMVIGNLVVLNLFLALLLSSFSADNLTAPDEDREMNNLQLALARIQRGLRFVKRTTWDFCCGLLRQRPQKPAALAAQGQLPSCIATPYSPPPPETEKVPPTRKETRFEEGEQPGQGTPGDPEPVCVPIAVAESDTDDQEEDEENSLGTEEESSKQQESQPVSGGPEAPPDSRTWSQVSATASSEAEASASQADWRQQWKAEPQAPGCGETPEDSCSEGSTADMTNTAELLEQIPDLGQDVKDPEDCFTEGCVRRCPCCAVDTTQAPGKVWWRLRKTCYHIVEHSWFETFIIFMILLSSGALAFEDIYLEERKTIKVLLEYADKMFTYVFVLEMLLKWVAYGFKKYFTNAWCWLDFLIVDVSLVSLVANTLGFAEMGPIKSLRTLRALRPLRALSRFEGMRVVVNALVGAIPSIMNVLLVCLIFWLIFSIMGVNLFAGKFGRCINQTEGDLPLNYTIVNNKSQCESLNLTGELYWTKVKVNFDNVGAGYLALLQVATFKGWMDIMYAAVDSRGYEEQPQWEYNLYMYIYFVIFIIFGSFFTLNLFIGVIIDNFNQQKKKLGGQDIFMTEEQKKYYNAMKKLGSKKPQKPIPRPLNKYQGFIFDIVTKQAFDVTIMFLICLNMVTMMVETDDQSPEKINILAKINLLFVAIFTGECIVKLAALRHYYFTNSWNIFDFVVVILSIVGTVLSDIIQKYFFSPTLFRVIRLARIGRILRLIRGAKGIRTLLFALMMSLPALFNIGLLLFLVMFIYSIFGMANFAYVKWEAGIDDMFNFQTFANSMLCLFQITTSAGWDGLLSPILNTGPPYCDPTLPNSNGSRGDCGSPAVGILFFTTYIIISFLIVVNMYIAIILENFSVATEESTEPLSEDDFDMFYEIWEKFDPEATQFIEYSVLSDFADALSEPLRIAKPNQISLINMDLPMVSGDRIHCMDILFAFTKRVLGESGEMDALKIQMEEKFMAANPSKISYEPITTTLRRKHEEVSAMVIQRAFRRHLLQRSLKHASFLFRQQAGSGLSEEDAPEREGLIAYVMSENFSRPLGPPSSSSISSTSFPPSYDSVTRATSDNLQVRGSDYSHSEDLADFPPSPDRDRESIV

[14] = Plasma concentration in C57BL/6 transverse aortic constriction mouse at 10 mg/kg, po via gavage measured at 3 hrs; assay type: ADME, organism-based; conditions: C57BL/6, mouse
[15] = Plasma concentration in C57BL/6 transverse aortic constriction mouse at 30 mg/kg, po via gavage measured at 3 hrs; assay type: ADME, organism-based; conditions: C57BL/6, mouse
[16] = Clearance in rat plasma at 1 mg/kg, iv or 2 mg/kg, po by LC/MS/MS analysis; assay type: ADME, organism-based
[17] = molecular target: Free fatty acid receptor 1 (Mus musculus, UniProt Q76JU9); assay: Agonist activity at mouse GPR40 assessed as increase in IP1 accumulation after 60 mins by HTRF assay; assay type: functional
Free fatty acid receptor 1, sequence (Q76JU9 whole entry): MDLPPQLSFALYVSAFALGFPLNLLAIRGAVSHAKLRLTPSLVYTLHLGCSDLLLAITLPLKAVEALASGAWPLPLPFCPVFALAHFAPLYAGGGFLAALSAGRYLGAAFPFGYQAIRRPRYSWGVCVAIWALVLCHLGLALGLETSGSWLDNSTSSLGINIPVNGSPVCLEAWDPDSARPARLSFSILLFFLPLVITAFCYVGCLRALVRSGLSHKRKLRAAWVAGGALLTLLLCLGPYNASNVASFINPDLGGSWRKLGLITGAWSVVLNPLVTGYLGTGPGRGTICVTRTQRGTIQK

[18] = molecular target: T4, Peroxisome proliferator-activated receptor alpha (Homo sapiens) (UniProt Q07869); assay: Activity at PPARalpha (unknown origin)
T4 sequence (whole entry): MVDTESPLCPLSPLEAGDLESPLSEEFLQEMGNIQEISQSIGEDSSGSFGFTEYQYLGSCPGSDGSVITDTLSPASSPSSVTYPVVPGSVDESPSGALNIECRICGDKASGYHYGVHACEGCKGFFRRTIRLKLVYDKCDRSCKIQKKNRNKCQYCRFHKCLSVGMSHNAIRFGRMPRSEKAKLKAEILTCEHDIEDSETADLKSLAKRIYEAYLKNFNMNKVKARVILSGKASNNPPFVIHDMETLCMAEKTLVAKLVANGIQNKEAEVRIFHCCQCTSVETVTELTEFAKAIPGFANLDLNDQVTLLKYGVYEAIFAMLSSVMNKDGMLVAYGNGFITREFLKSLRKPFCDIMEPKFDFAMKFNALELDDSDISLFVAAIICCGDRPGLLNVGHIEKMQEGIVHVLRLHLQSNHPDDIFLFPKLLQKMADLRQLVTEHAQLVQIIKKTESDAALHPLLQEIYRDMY

[19] = Volume of distribution at steady state in mouse plasma at 2 mg/kg, iv or 30 mg/kg, po by LC/MS/MS analysis; assay type: ADME, organism-based; conditions: read-out: Vdss
[20] = Clearance in rhesus monkey plasma at 0.5 mg/kg, iv or 1 mg/kg, po by LC/MS/MS analysis; assay type: ADME, organism-based, Macaca mulatta
[21] = molecular target: Cytochrome P450 2C9 (Homo sapiens, UniProt P11712); assay: Inhibition of human CYP2C9; assay type: ADME
[22] = Volume of distribution at steady state in rat plasma at 0.1 mg/kg administered as iv casette dose by LC/MS/MS analysis; assay type: ADME, organism-based; conditions: read-out: Vdss
[23] = Mean residence time in mouse plasma at 2 mg/kg, iv or 30 mg/kg, po by LC/MS/MS analysis; assay type: ADME, organism-based
[24] = Mean residence time in rhesus monkey plasma at 0.5 mg/kg, iv or 1 mg/kg, po by LC/MS/MS analysis; assay type: ADME, organism-based, Macaca mulatta
[25] = Intrinsic clearance in rhesus monkey plasma at 0.5 mg/kg, iv or 1 mg/kg, po by LC/MS/MS analysis; assay type: ADME, organism-based, Macaca mulatta; conditions: in vivo
[26] = Intrinsic clearance in rat plasma at 1 mg/kg, iv or 2 mg/kg, po by LC/MS/MS analysis; assay type: ADME, organism-based; conditions: in vivo

Question: What does the source list for `CO[C@H]1C[C@H](Oc2cc(F)c(F)c(-c3ccc4c(c3)CC[C@H](CCC(=O)O)O4)n2)C1`?
Answer: concentration at 3 h [1]: 43.9 µM; Vd [2]: 0.27 L/kg; Activity [3]: > 50%; bioavailability [4]: 76%; EC50 [5]: 0.035 µM; IC50 [6]: > 50 µM; Activity [7]: Dose-dependent effect; minimal effective dose ([7]; C57BL/6, Blood, read-out: MED): 10 mg/kg; concentration at 3 h [8]: 0.75 µM; IC50 [9]: 28 µM; IC50 [10]: > 60 µM; clearance [11]: 0.078 L/h/kg; Activity [12]: > 10 µM; IC50 [13]: 27 µM; concentration at 3 h [14]: 1.17 µM; concentration at 3 h [15]: 3.12 µM; clearance [16]: 0.066 L/h/kg; EC50 [17]: > 10 µM; Activity [18]: > 10 µM; Vd [19]: 1.4 L/kg; clearance [20]: 0.0198 L/h/kg; IC50 [21]: > 50 µM; Vd [22]: 0.24 L/kg; MRT [23]: 2.4 h; MRT [24]: 13.5 h; CL [25]: 9 L/h/kg; CL [26]: 28.2 L/h/kg
